This assay deals with T1, human APJ receptor (Homo sapiens, UniProt P35414).
T1 construct: expressed in transfected cells
T1 sequence (P35414 1-380): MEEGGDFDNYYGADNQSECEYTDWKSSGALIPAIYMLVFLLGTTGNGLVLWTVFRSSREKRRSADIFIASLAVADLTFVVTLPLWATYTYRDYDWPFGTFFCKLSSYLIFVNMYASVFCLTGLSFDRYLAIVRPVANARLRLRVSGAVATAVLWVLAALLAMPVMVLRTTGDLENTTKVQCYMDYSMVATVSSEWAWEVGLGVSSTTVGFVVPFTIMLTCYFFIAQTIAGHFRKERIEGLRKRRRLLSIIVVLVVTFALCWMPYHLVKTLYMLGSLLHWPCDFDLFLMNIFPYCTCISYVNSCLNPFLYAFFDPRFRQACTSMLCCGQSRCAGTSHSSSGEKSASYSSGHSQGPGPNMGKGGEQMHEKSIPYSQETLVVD
Kind of assay: Intracellular cAMP accumulation assay (APJ hcAMP, HTRF). In kind it is cell-based. The settings on record: Table 2; HEK293 cells stably expressing human APJ receptor; read-out: hAPJ cAMP EC50 Potency range. In outline:
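Inhibition of forskolin (2 μM)-driven cAMP, with […], measured by HTRF after 30 min room-temperature compound exposure of stably transfected HEK293 cells. cAMP read from a standard curve; variable-slope fit gives EC50, and maximal inhibition is normalised to (Pyr1)apelin-13 as 100%.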
As to `CCCCc1nc(O)c(-c2nnc(Cc3csc(C)n3)o2)c(=O)n1[C@@H](C)c1ccc(F)cc1` [Example 95, 2-butyl-3-[(1S)-1-(4-fluorophenyl)ethyl]-6-hydroxy-5-{5-[(2-methyl-1,3-thiazol-4-yl)methyl]-1,3,4-oxadiazol-2-yl}-3,4-dihydropyrimidin-4-one], the EC50 was in the range of 10 to 100 nM.

Consider `CCCCc1nc(O)c(-c2nnc(Cc3noc4ccccc34)o2)c(=O)n1[C@H]1CCc2ccccc21` [Example 96, 5-{5-[(1,2-benzoxazol-3-yl)methyl]-1,3,4-oxadiazol-2-yl}-2-butyl-3-[(1S)-2,3-dihydro-1H-inden-1-yl]-6-hydroxy-3,4-dihydropyrimidin-4-one], for which the EC50 was 10 to 100 nM.

In the case of `CCCCc1nc(O)c(-c2nnc(Cc3csc(C)n3)o2)c(=O)n1[C@H]1CCc2ccccc21` [Example 97, 2-butyl-3-[(1S)-2,3-dihydro-1H-inden-1-yl]-6-hydroxy-5-{5-[(2-methyl-1,3-thiazol-4-yl)methyl]-1,3,4-oxadiazol-2-yl}-3,4-dihydropyrimidin-4-one], the EC50 fell in the range of 0.01 to 10 nM. In the case of `CCCCc1nc(O)c(-c2nnc(Cc3ccc(Cl)cn3)o2)c(=O)n1[C@@H](C)c1ccc(F)cc1` [Example 98, 2-butyl-5-{5-[(5-chloropyridin-2-yl)methyl]-1,3,4-oxadiazol-2-yl}-3-[(1S)-1-(4-fluorophenyl)ethyl]-6-hydroxy-3,4-dihydropyrimidin-4-one], the EC50 lay within 0.01 to 10 nM. For `CCCCc1nc(O)c(-c2nnc(Cc3ccc(Cl)cn3)o2)c(=O)n1[C@H](COC)c1ccccc1` [Example 99] the value was 10 to 100 nM.

Consider `CCCCc1nc(O)c(-c2nnc(Cc3ccc(Cl)cn3)o2)c(=O)n1[C@H]1CCCc2ccccc21` [Example 100, 2-butyl-5-{5-[(5-chloropyridin-2-yl)methyl]-1,3,4-oxadiazol-2-yl}-6-hydroxy-3-[(1S)-1,2,3,4-tetrahydronaphthalen-1-yl]-3,4-dihydropyrimidin-4-one], for which the EC50 was 0.01 to 10 nM.

Regarding `CCCCc1nc(O)c(-c2nnc(Cc3ccc(Cl)cn3)o2)c(=O)n1[C@@H](COC)c1ccccc1` [Example 101, 2-butyl-5-{5-[(5-chloropyridin-2-yl)methyl]-1,3,4-oxadiazol-2-yl}-6-hydroxy-3-[(1R)-2-methoxy-1-phenylethyl]-3,4-dihydropyrimidin-4-one], the EC50 fell in the range of 0.01 to 10 nM. For `CCCCc1nc(O)c(-c2nnc(Cc3noc4ccccc34)o2)c(=O)n1[C@@H](C)c1ccc(OC)cc1` [Example 102, 5-{5-[(1,2-benzoxazol-3-yl)methyl]-1,3,4-oxadiazol-2-yl}-2-butyl-6-hydroxy-3-[(1S)-1-(4-methoxyphenyl)ethyl]-3,4-dihydropyrimidin-4-one] the value was 100 to 300 nM. Next, `CCCCc1nc(O)c(-c2nnc(Cc3noc4ccccc34)o2)c(=O)n1[C@@H](C)c1cccc(C#N)c1` [Example 103, 3-[(1S)-1-(5-{5-[(1,2-benzoxazol-3-yl)methyl]-1,3,4-oxadiazol-2-yl}-2-butyl-4-hydroxy-6-oxo-1,6-dihydropyrimidin-1-yl)ethyl]benzonitrile]: 10 to 100 nM; `CCCCc1nc(O)c(-c2nnc(Cc3csc(C)n3)o2)c(=O)n1[C@@H](C)c1cccc(C#N)c1` [Example 104, 3-[(1S)-1-(2-butyl-4-hydroxy-5-{5-[(2-methyl-1,3-thiazol-4-yl)methyl]-1,3,4-oxadiazol-2-yl}-6-oxo-1,6-dihydropyrimidin-1-yl)ethyl]benzonitrile]: 10 to 100 nM; `CCCCc1nc(O)c(-c2nnc(Cc3ccc(Cl)cn3)o2)c(=O)n1[C@@H](CCC)c1ccccc1` [Example 105, 2-butyl-5-{5-[(5-chloropyridin-2-yl)methyl]-1,3,4-oxadiazol-2-yl}-6-hydroxy-3-[(1S)-1-phenylbutyl]-3,4-dihydropyrimidin-4-one]: 0.01 to 10 nM.

Regarding `CCCCc1nc(O)c(-c2nnc(Cc3csc(C)n3)o2)c(=O)n1[C@@H](CCC)c1ccccc1` [Example 106, 2-butyl-6-hydroxy-5-{5-[(2-methyl-1,3-thiazol-4-yl)methyl]-1,3,4-oxadiazol-2-yl}-3-[(1S)-1-phenylbutyl]-3,4-dihydropyrimidin-4-one], the concentration giving a half-maximal response (EC50) is 10 to 100 nM.

On to `CCCCc1nc(O)c(-c2nnc(Cc3noc4ccccc34)o2)c(=O)n1[C@@H](CCC)c1ccccc1` [Example 107, 5-{5-[(1,2-benzoxazol-3-yl)methyl]-1,3,4-oxadiazol-2-yl}-2-butyl-6-hydroxy-3-[(1S)-1-phenylbutyl]-3,4-dihydropyrimidin-4-one], for which the EC50 is 10 to 100 nM.

As for `CCCCc1nc(O)c(-c2nnc(Cc3ccc(Cl)cn3)o2)c(=O)n1[C@@H](C)c1cccc(C#N)c1` [Example 108, 3-[(1S)-1-(2-butyl-5-{5-[(5-chloropyridin-2-yl)methyl]-1,3,4-oxadiazol-2-yl}-4-hydroxy-6-oxo-1,6-dihydropyrimidin-1-yl)ethyl]benzonitrile], the EC50 is 0.01 to 10 nM. Turning to `CCCCc1nc(O)c(-c2nnc(Cc3ccc(Cl)cn3)o2)c(=O)n1C(C)c1ccncc1` (stereo not drawn) [Example 109, 2-butyl-5-{5-[(5-chloropyridin-2-yl)methyl]-1,3,4-oxadiazol-2-yl}-6-hydroxy-3-[1-(pyridin-4-yl)ethyl]-3,4-dihydropyrimidin-4-one], the EC50 lay in the range of 0.01 to 10 nM.

Consider `CCCCc1nc(O)c(-c2nnc(Cc3noc4ccccc34)o2)c(=O)n1C(C)c1ccncc1` (stereo not drawn) [Example 110, 5-{5-[(1,2-benzoxazol-3-yl)methyl]-1,3,4-oxadiazol-2-yl}-2-butyl-6-hydroxy-3-[1-(pyridin-4-yl)ethyl]-3,4-dihydropyrimidin-4-one], for which the EC50 lay in the range of 10 to 100 nM. For `CCCCc1nc(O)c(-c2nnc(Cc3ccc(Cl)cn3)o2)c(=O)n1C(C)c1ccncc1` (stereo not drawn) [Example 111, 2-butyl-5-{5-[(5-chloropyridin-2-yl)methyl]-1,3,4-oxadiazol-2-yl}-6-hydroxy-3-[1-(pyridin-4-yl)ethyl]-3,4-dihydropyrimidin-4-one] the value was 0.01 to 10 nM. With `CCCCc1nc(O)c(-c2nnc(Cc3csc(C)n3)o2)c(=O)n1C(c1ccccc1)C(C)C` (stereo not drawn) [Example 112, 2-butyl-6-hydroxy-5-{5-[(2-methyl-1,3-thiazol-4-yl)methyl]-1,3,4-oxadiazol-2-yl}-3-(2-methyl-1-phenylpropyl)-3,4-dihydropyrimidin-4-one], the EC50 was in the range of 10 to 100 nM. For `CCCCc1nc(O)c(-c2nnc(Cc3ccc(Cl)cn3)o2)c(=O)n1C(c1ccccc1)C(C)C` (stereo not drawn) [Example 113, 2-butyl-5-{5-[(5-chloropyridin-2-yl)methyl]-1,3,4-oxadiazol-2-yl}-6-hydroxy-3-(2-methyl-1-phenylpropyl)-3,4-dihydropyrimidin-4-one] the value was 0.01 to 10 nM; for `CCCCc1nc(O)c(-c2nnc(Cc3noc4ccccc34)o2)c(=O)n1[C@@H](C)c1cccc(OC)c1` [Example 114, 5-{5-[(1,2-benzoxazol-3-yl)methyl]-1,3,4-oxadiazol-2-yl}-2-butyl-6-hydroxy-3-[(1S)-1-(3-methoxyphenyl)ethyl]-3,4-dihydropyrimidin-4-one], 10 to 100 nM. For `CCCCc1nc(O)c(-c2nnc(Cc3noc4ccccc34)o2)c(=O)n1C(c1ccccc1)C(C)C` (stereo not drawn) [Example 115, 5-{5-[(1,2-benzoxazol-3-yl)methyl]-1,3,4-oxadiazol-2-yl}-2-butyl-6-hydroxy-3-(2-methyl-1-phenylpropyl)-3,4-dihydropyrimidin-4-one] the value was 10 to 100 nM.

As to `CCCCc1nc(O)c(-c2nnc(Cc3ccc(Cl)cn3)o2)c(=O)n1[C@@H](C)c1cccc(OC)c1` [Example 116, 2-butyl-5-{5-[(5-chloropyridin-2-yl)methyl]-1,3,4-oxadiazol-2-yl}-6-hydroxy-3-[(1S)-1-(3-methoxyphenyl)ethyl]-3,4-dihydropyrimidin-4-one], the EC50 is 0.01 to 10 nM. For `CCCCc1nc(O)c(-c2nnc(Cc3noc4ccccc34)o2)c(=O)n1[C@@H]1CCc2ccccc21` [Example 117, 5-{5-[(1,2-benzoxazol-3-yl)methyl]-1,3,4-oxadiazol-2-yl}-2-butyl-3-[(1R)-2,3-dihydro-1H-inden-1-yl]-6-hydroxy-3,4-dihydropyrimidin-4-one] the value was 100 to 300 nM. Turning to `CCCCc1nc(O)c(-c2nnc(Cc3ccc(Cl)cn3)o2)c(=O)n1[C@@H](CC)c1ccccc1` [Example 118, 2-butyl-5-{5-[(5-chloropyridin-2-yl)methyl]-1,3,4-oxadiazol-2-yl}-6-hydroxy-3-[(1S)-1-phenylpropyl]-3,4-dihydropyrimidin-4-one], the EC50 lay in the range of 0.01 to 10 nM. For `CCCCc1nc(O)c(-c2nnc(Cc3ccc(Cl)cn3)o2)c(=O)n1[C@@H](C)c1ccccc1` [Example 119, 2-butyl-5-{5-[(5-chloropyridin-2-yl)methyl]-1,3,4-oxadiazol-2-yl}-6-hydroxy-3-[(1S)-1-phenylethyl]-3,4-dihydropyrimidin-4-one] the value was 0.01 to 10 nM; for `CCCCc1nc(O)c(-c2nnc(Cc3ccc(Cl)cn3)o2)c(=O)n1[C@H](C)c1ccccc1` [Example 120, 2-butyl-5-{5-[(5-chloropyridin-2-yl)methyl]-1,3,4-oxadiazol-2-yl}-6-hydroxy-3-[(1R)-1-phenylethyl]-3,4-dihydropyrimidin-4-one], 0.01 to 10 nM; for `CCCCc1nc(O)c(-c2nnc(Cc3noc4ccccc34)o2)c(=O)n1C(C)c1cccnc1` (stereo not drawn) [Example 121, 5-{5-[(1,2-benzoxazol-3-yl)methyl]-1,3,4-oxadiazol-2-yl}-2-butyl-6-hydroxy-3-[1-(pyridin-3-yl)ethyl]-3,4-dihydropyrimidin-4-one], 100 to 300 nM.

(Values after patent publication US10669261B2, “Heteroarylhydroxypyrimidinones as agonists of the APJ receptor” (BRISTOL-MYERS SQUIBB COMPANY, priority 2015, dated 2020).)
